A short description of data set [1]: Lactic acid titration of simulated vaginal and seminal fluids (pH). The format is physicochemical. Conditions: for pH reached: same LA concentration (24 mM). How it is done: The amount of lactic acid necessary for contraceptive efficacy was estimated by measuring solution pH. Simulated vaginal and seminal fluids, with physiologically-representative buffer capacities, were prepared as previously described by Rastogi et al.[43] Simulated vaginal fluid (SVF) was mixed with seminal fluid simulant (SFS) in a 1:5 ratio to represent potential fluid volumes during intercourse.

Data set [2] relates to sperm. In words: Sander-Cramer assay, 1:6 semen:compound, with recovery. The class given is cell-based, human. Conditions: for MEC after recovery ± SD: 1:6 semen:compound, diluted with 1 mL inhibitor-free media, 60 mins; for MEC ± SD: 30 sec exposure, 1:6 dilution ratio (50 μL semen + 250 μL compound). Here is the method: (§1) Semen samples were collected from consented healthy male donors by masturbation after 2–5 days of sexual abstinence. The protocol was approved by the Eastern Virginia Medical School’s Institutional Review Board (IRB) at the Macon & Joan Brock Virginia Health Sciences, Old Dominion University. Semen analysis was performed according to WHO guidelines.[44]
(§2) The highest spermicidal dilution and minimum effective concentration (MEC) for the test compounds were determined using the modified Sander-Cramer (SCr) assay.[45] […] Briefly, 250 μL of test compounds were incubated with 50 μL of semen for 30 sec at room temperature (RT). During the incubation period, each sample was examined under a phase-contrast microscope (E600 Nikon Eclipse, Melville, MY) for the presence of motile sperm. To evaluate the protective effect of seminal plasma, 50 μL of test compounds were incubated with 50 μL of semen (1:1 dilution ratio) for 30 sec at room temperature (RT). If any motile sperm (i.e. progressive, twitching, etc.) were found within 30 seconds, then the dilution was recorded as ‘Failed’. If no motile sperm were found, the dilution was considered as ‘Pass.’ The results from 4–6 independent experiments were combined, and the highest spermicidal dilution and MEC were calculated as MEC=initialconcentration/highestspermicidaldilution and presented as Mean ± SE.
(§3) To see whether the sperm immobilizing effect of the compounds was reversible, 1 mL of warmed Ham’s F-10 media (Millipore Sigma, MA, USA) supplemented with 1% Human Serum Albumin (HSA) (Millipore Sigma, MA, USA) was added to each sample to further dilute the compound concentration and assess the reversibility of the sperm immobilization effect. Sperm were incubated for an additional 60 mins at 37°C. After this sperm “recovery” period, motility was re-evaluated with manual counting and calculated as: %SpermMotility=TotalMotileSperm/TotalMotile+immobileSperm*100.

Data set [3] relates to sperm. In words: Modified Sander-Cramer assay, 1:1 semen:compound, with recovery. The format is cell-based, human. Conditions: for MEC: 30 sec exposure, 1:1 dilution ratio (50 μL semen + 50 μL compound). How it is done:
as §1, §2, §3

Data set [4] concerns sperm. As to the kind of experiment: Time-response sperm motility assay (single compounds, 1:1 dilution). The format is cell-based, human. Here is the method:
A time-response experiment was conducted to assess the impact of contraceptive compounds on sperm motility at various time points following incubation. Sperm samples were incubated with varying concentrations of LA or GML (1:1 dilution ratio) for 30 secs, 10, 30, 60, and 120 minutes. Concentrations of GML were selected based on the critical micelle concentration (CMC) of 16.4 μg/mL.[43] Each sample was examined under a phase-contrast microscope, and sperm motility was assessed manually.

Data set [5] in a line: Saturation solubility in relevant solvents and release media. The format is physicochemical. Conditions: thermodynamic from solid, read-out: GML Saturation Solubility. Here is the method: Approximately 20 mg samples of GML were weighed into microcentrifuge tubes and 100 μL of solvent (n=3) was subsequently added. Samples were vortexed and assessed visually to determine dissolution progress. As dissolution occurred, an additional 20 mg of GML was added until complete saturation was reached. All samples were then stored, protected from light, overnight to confirm complete saturation. […] The supernatant samples were diluted with MeOH and drug concentration was subsequently analyzed via LC-MS as described above.

Data set [6] has as its system Human vaginal epithelial cells, VK2/E6E7. As to the kind of experiment: In vitro cytotoxicity, MTS assay. The class given is cell-based. Conditions: 24 hrs. How it is done: Human vaginal epithelial cells, VK2/E6E7 (ATCC® CRL-2616™), were used to evaluate GML’s effect on cell viability. VK2 cells were propagated in Gibco™ Keratinocyte SFM (1×) media (Cat# 17005042, ThermoFisher Scientific, MA, USA) supplemented with 0.1 ng/mL epidermal growth factor, 50 μg/mL bovine pituitary extract, 0.4 mM CaCl2, and 1% penicillin and streptomycin (P/S; Cat# 15140–122, Gibco). Cells were incubated with varying concentrations of GML for 24 hrs at 37°C. Cell viability was assessed using CellTiter 96® AQueous Non-Radioactive Cell Proliferation (MTS) Assay (Cat# G5421, Promega, WI, USA) per manufacturer instructions.

On the set-up of data set [7]: method as in PMID 26585883. Conditions: cited from earlier work.

In brackets after ≈: the same amount, converted by molar mass. Several values for one entry are separate records, joined by “and”; a condition that tells them apart may be missing. Equal entries are not always repeated. Where two headings read alike, the source gives them in different places.

`CC(O)C(=O)O` (stereo not drawn) [LA, lactic acid]: in data set [1] (1:5 mixture of SVF and SFS), the “LA concentration at which mixture pH reached 4.2” value is 24 mM and 2.16 mg/mL. The pH reached in data set [1] (SSF alone) is recorded as 3.37; in data set [1] (SVF alone), 3.67. In addition, the “MEC after recovery ± SD” value in data set [2] came out at 9 mg/mL. Moreover, in data set [2], the “MEC ± SD” value was found to be 9 mg/mL. Besides, the MEC in data set [3] is recorded as 18 mg/mL; in data set [4] (following 10 mins, persisting during 120 mins, 1:1 dilution ratio), 10 mg/mL; in data set [4] (within 30 sec, 1:1 dilution ratio), 20 mg/mL. Besides, in data set [4] (summary statement), the “Concentration inducing immediate sperm immobilization” value stood at 10 mg/mL.
For the compound `CCCCCCCCCCCC(=O)OCC(O)CO` (stereo not drawn) [GML, glycerol monolaurate], the solubility at 24 h in data set [5] (acetone, organic solvent or mixture) is 255.2 ± 1.74 mg/mL (≈ 930 mM); in data set [5] (ethanol, organic solvent or mixture, EtOH), 271 ± 18 mg/mL (≈ 988 mM); in data set [5] (methanol, organic solvent or mixture, MeOH), 278 ± 45.2 mg/mL (≈ 1010 mM); in data set [5] (simulated vaginal fluid with 2% Solutol, pH 4.2, aqueous with cosolvent or surfactant or cyclodextrin, SVF (w/ 2% solutol)), 3.25 ± 0.45 mg/mL (≈ 11.8 mM); in data set [5] (water) it was 4.48 ± 0.12 mg/mL (≈ 16.3 mM). The “Concentration above which compound visibly precipitated” value in data set [2] (0.9% saline) was “above 0.2 mg/mL”. The “MEC after recovery ± SD” value in data set [2] is 1.7 ± 0.9 mg/mL and 1.7 ± 0.9^γ mg/mL. Also, in data set [2], the “MEC ± SD” value amounted to 45 ± 5.5 mg/mL. This compound also had an MEC after recovery in data set [3] (1:1 semen:compound, diluted with 1 mL inhibitor-free media, 60 mins) of 1.7 ± 0.9 mg/mL. For the same compound, in data set [3], the MEC was 55 ± 5.8 mg/mL. Besides, the “Time to immobilize all sperm” value in data set [4] (at 20 mg/mL, 1:1 dilution ratio) turned out to be 10 min. Besides, the “Concentration completely immobilizing sperm” value in data set [4] (incubation 30–120 mins, 1:1 dilution ratio) came to 2 mg/mL. In addition, the Concentrations considered non-cytotoxic in data set [6] was not above 20 µg/mL. For the same compound, the “Concentrations significantly decreasing cell viability” value in data set [6] was not below 200 µg/mL. Further, the “Critical micelle concentration (CMC)” value in data set [7] was 16.4 µg/mL.

Values taken from paper PMC12668138, “First-in-line 3D-printed intravaginal ring for nonhormonal contraception” (Research Square, 2025).
